Measurements as given in patent US12410160B2 (Gilead Sciences, Inc., priority 2021, dated 2025).
pEC50, pIC50: −log10 of the molar value.

What was measured:
human KHK-C = human KHK-C (Homo sapiens (Human), UniProt P50053); test: KHK Biochemical Assay (IC50), ADP-Glo, KHK-C; details: average of at least two separate assays
In short: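 His-tagged enzyme expressed in BL21 (DE3), Ni-NTA purified. Compounds, serially diluted 1:3 in DMSO, pre-incubated 30 min with enzyme in 50 mM Hepes pH 7.4, 140 mM KCl, 5 mM MgCl2, 0.01% Triton-X, then ATP and fructose added; 4 h at room temperature. ADP formation read by ADP-Glo luminescence.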

[1] = molecular target: KHK-C expressed in NRK-52E cells (Homo sapiens (Human), UniProt P50053); test: KHK-C Cell-based Assay (EC50), NRK CTG, fructose-mediated ATP-depletion
KHK-C expressed in NRK-52E cells, sequence (P50053 whole entry): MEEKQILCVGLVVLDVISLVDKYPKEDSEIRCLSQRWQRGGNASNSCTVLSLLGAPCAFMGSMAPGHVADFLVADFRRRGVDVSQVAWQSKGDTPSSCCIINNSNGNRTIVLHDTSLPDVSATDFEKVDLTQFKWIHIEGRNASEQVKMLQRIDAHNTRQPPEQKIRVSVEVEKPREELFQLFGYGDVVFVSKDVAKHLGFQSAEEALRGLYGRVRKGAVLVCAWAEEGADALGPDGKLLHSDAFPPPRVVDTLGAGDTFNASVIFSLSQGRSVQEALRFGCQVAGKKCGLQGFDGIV

human KHK-C, sequence (P50053 whole entry): as above

SMILES: C[C@H]1CCN1c1nc2c(c(-c3cn(C4COC4)nn3)n1)CCC2 [Example 704, 2-[(2S)-2-methylazetidin-1-yl]-4-[1-(oxetan-3-yl)triazol-4-yl]-6,7-dihydro-5H-cyclopenta[d]pyrimidine]
- pIC50 (human KHK-C): 6.60
- pEC50 [1]: 5.88

SMILES: C[C@H]1CCN1c1nc2c(c(-c3ccc4[nH]c(N)nc4c3)n1)CCC2 [Example 731, (S)-5-(2-(2-methylazetidin-1-yl)-6,7-dihydro-5H-cyclopenta[d]pyrimidin-4-yl)-1H-benzo[d]imidazol-2-amine]
- pIC50 (human KHK-C): 8.28
- pEC50 [1]: 6.60

SMILES: C[C@H]1[C@H](O)CN1c1nc(-c2ccc3c(c2)C(=O)N(C)CC3)c2c(n1)C(F)(F)CC2 [Example 600, 7-(7,7-difluoro-2-((2S,3R)-3-hydroxy-2-methylazetidin-1-yl)-6,7-dihydro-5H-cyclopenta[d]pyrimidin-4-yl)-2-methyl-3,4-dihydroisoquinolin-1(2H)-one]
- pIC50 (human KHK-C): 7.87
- pEC50 [1]: 6.90

SMILES: C[C@H]1COc2cc(-c3nc(N4C[C@@H](O)[C@@H]4C)nc4c3CCC4(F)F)ccc2C(=O)N1 [Example 179, (S)-8-(7,7-difluoro-2-((2S,3R)-3-hydroxy-2-methylazetidin-1-yl)-6,7-dihydro-5H-cyclopenta[d]pyrimidin-4-yl)-3-methyl-3,4-dihydrobenzo[f][1,4]oxazepin-5(2H)-one]
- pIC50 (human KHK-C; ADP-Glo): 7.46
- pEC50 [1]: 6.41

SMILES: N#CC1CN(c2nc(-c3ccc(C(N)=O)cc3)c3c(n2)C(F)(F)CC3)C1 [Example 708, 4-(2-(3-cyanoazetidin-1-yl)-7,7-difluoro-6,7-dihydro-5H-cyclopenta[d]pyrimidin-4-yl)benzamide]
- pIC50 (human KHK-C): < 5.30
- pEC50 [1]: < 5.30

SMILES: C[C@@H](NS(C)(=O)=O)c1cccc(-c2nc(N3CC[C@@H]3C)nc3c2CCC3(F)F)c1 [Example 749, N-[(1R)-1-[3-[7,7-difluoro-2-[(2S)-2-methylazetidin-1-yl]-5,6-dihydrocyclopenta[d]pyrimidin-4-yl]phenyl]ethyl]methanesulfonamide]
- pIC50 (human KHK-C): 7.73
- pEC50 [1]: 7.16

SMILES: C[C@H]1CCCN1c1nc2c(c(-c3ccc(C(N)=O)cc3)n1)CCC2 [Example 403, (S)-4-(2-(2-methylpyrrolidin-1-yl)-6,7-dihydro-5H-cyclopenta[d]pyrimidin-4-yl)benzamide]
- pIC50 (human KHK-C): 6.66
- pEC50 [1]: 6.62

SMILES: C[C@H]1CCN1c1nc2c(c(-c3ccc(C4(NS(C)(=O)=O)CCC4)cc3)n1)CCC2 [Example 743, N-[1-[4-[2-[(2S)-2-methylazetidin-1-yl]-6,7-dihydro-5H-cyclopenta[d]pyrimidin-4-yl]phenyl]cyclobutyl]methanesulfonamide]
- pIC50 (human KHK-C): 5.99
- pEC50 [1]: 5.77

SMILES: C[C@H]1CCN1c1nc(-c2cc3c(c(S(N)(=O)=O)c2)OCC3)c2c(n1)C(F)(F)CC2 [Example 742, 5-[7,7-difluoro-2-[(2S)-2-methylazetidin-1-yl]-5,6-dihydrocyclopenta[d]pyrimidin-4-yl]-2,3-dihydrobenzofuran-7-sulfonamide]
- pIC50 (human KHK-C): 8.89
- pEC50 [1]: 8.39

SMILES: NC(=O)c1ccc(-c2nc(N3CCn4cncc43)nc3c2CCC3)cc1 [Example 174, 4-(2-(2,3-dihydro-1H-imidazo[1,5-a]imidazol-1-yl)-6,7-dihydro-5H-cyclopenta[d]pyrimidin-4-yl)benzamide]
- pIC50 (human KHK-C; ADP-Glo): < 5.30
- pEC50 [1]: < 5.30

SMILES: C[C@H]1[C@H](O)CN1c1nc2c(c(-c3ccc4c(c3)S(=O)(=O)CNC4=O)n1)CCC2 [Example 601, 7-(2-((2S,3R)-3-hydroxy-2-methylazetidin-1-yl)-6,7-dihydro-5H-cyclopenta[d]pyrimidin-4-yl)-2,3-dihydro-4H-benzo[e][1,3]thiazin-4-one 1,1-dioxide]
- pIC50 (human KHK-C): 7.02
- pEC50 [1]: < 5.30

SMILES: C[C@H]1[C@H](O)CN1c1nc(-c2ccc(C(N)=O)nc2)c2c(n1)C(F)(F)CC2 [Example 168, 5-(7,7-difluoro-2-((2S,3R)-3-hydroxy-2-methylazetidin-1-yl)-6,7-dihydro-5H-cyclopenta[d]pyrimidin-4-yl)picolinamide]
- pIC50 (human KHK-C; ADP-Glo): 7.63
- pEC50 [1]: 6.84

SMILES: C[C@H]1[C@H](O)CN1c1nc2c(c(-c3cc4c(c(S(N)(=O)=O)c3)OCC4)n1)CCC2 [Example 739, 5-(2-((2S,3R)-3-hydroxy-2-methylazetidin-1-yl)-6,7-dihydro-5H-cyclopenta[d]pyrimidin-4-yl)-2,3-dihydrobenzofuran-7-sulfonamide]
- pIC50 (human KHK-C): 7.42
- pEC50 [1]: 6.67

SMILES: C[C@H]1[C@H](O)CN1c1nc(-c2ccc3c(c2)OCCNS3(=O)=O)c2c(n1)C(F)(F)CC2 [Example 500]
- pIC50 (human KHK-C): 7.31
- pEC50 [1]: 6.62

SMILES: C[C@H](NS(C)(=O)=O)c1ccc(-c2nc(N3CC[C@@H]3C)nc3c2CCC3(F)F)cc1 [Example 750, N-[(1S)-1-[4-[7,7-difluoro-2-[(2S)-2-methylazetidin-1-yl]-5,6-dihydrocyclopenta[d]pyrimidin-4-yl]phenyl]ethyl]methanesulfonamide]
- pIC50 (human KHK-C): 8.05
- pEC50 [1]: 7.83

SMILES: N#C[C@H]1CCN1c1nc(-c2ccc(C(N)=O)cc2)c2c(n1)C(F)(F)CC2 [Example 707, (R)-4-(2-(2-cyanoazetidin-1-yl)-7,7-difluoro-6,7-dihydro-5H-cyclopenta[d]pyrimidin-4-yl)benzamide]
- pIC50 (human KHK-C): 7.36
- pEC50 [1]: 6.48

SMILES: C[C@H]1CCN1c1nc2c(c(-c3ccc4oc(N)nc4c3)n1)CCC2 [Example 736, (S)-5-(2-(2-methylazetidin-1-yl)-6,7-dihydro-5H-cyclopenta[d]pyrimidin-4-yl)benzo[d]oxazol-2-amine]
- pIC50 (human KHK-C): 7.68
- pEC50 [1]: 7.46

SMILES: C[C@H]1CCN1c1nc2c(c(-c3ccc4c(c3)CN(S(=O)(=O)CCO)CC4)n1)CCC2 [Example 605]
- pIC50 (human KHK-C): 7.01
- pEC50 [1]: 6.82

SMILES: C[C@H]1[C@H](O)CN1c1nc2c(c(-c3ccc(C(=O)O)cc3)n1)CCC2 [Example 162, 4-(2-((2S,3R)-3-hydroxy-2-methylazetidin-1-yl)-6,7-dihydro-5H-cyclopenta[d]pyrimidin-4-yl)benzoic acid]
- pIC50 (human KHK-C; ADP-Glo): 7.03
- pEC50 [1]: < 5.30

SMILES: C[C@H]1CCN1c1nc(-c2ccc3c(c2)OCCC3NS(C)(=O)=O)c2c(n1)C(F)(F)CC2 (stereo partly drawn) [Example 759, N-[7-[7,7-difluoro-2-[(2S)-2-methylazetidin-1-yl]-5,6-dihydrocyclopenta[d]pyrimidin-4-yl]chroman-4-yl]methanesulfonamide]
- pIC50 (human KHK-C): 8.64
- pEC50 [1]: 8.16

SMILES: CS(=O)(=O)NC[C@H]1CCN1c1nc2c(c(-c3ccc(C(N)=O)cc3)n1)CCC2 [Example 457, 4-[2-[(2R)-2-(methanesulfonamidomethyl)azetidin-1-yl]-6,7-dihydro-5H-cyclopenta[d]pyrimidin-4-yl]benzamide]
- pIC50 (human KHK-C): 6.02
- pEC50 [1]: < 5.30

SMILES: C[C@H]1CCN1c1nc2c(c(-c3ccc4sc(N)nc4c3)n1)CCC2 [Example 733, (S)-5-(2-(2-methylazetidin-1-yl)-6,7-dihydro-5H-cyclopenta[d]pyrimidin-4-yl)benzo[d]thiazol-2-amine]
- pIC50 (human KHK-C): 7.30
- pEC50 [1]: 6.91

SMILES: C[C@H]1CNC(=O)c2ccc(-c3nc(N4C[C@@H](O)[C@@H]4C)nc4c3CCC4(F)F)cc2O1 [Example 87]
- pIC50 (human KHK-C; ADP-Glo): 8.47
- pEC50 [1]: 7.34

SMILES: C[C@H]1CCN1c1nc2c(c(-c3ccc4nc(N)sc4c3)n1)CCC2 [Example 734, (S)-6-(2-(2-methylazetidin-1-yl)-6,7-dihydro-5H-cyclopenta[d]pyrimidin-4-yl)benzo[d]thiazol-2-amine]
- pIC50 (human KHK-C): 7.14
- pEC50 [1]: 7.04
